Results: the supplement of paper PMC10331698
± gives the standard deviation of the averaged measurements.

What was measured:
Experiment in all cases: level (log10 ratio to DMSO vehicle control); higher = higher biomarker level / cell amount than vehicle control
[1] = compound: C=C(C)C(=O)OCC(F)(F)C(F)(F)C(F)(F)F [2,2,3,3,4,4,4-Heptafluorobutyl methacrylate]; conditions: in DMSO
Description: (§1)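 BioMAP Diversity Plus panel of 12 human primary cell co-culture systems (3C, 4H, LPS, SAg, BT, BF4T, BE3C, CASM3C, HDF3CGF, KF3CT, MyoF, Mphg). Compounds were added 1 h before stimulation and left for 24 h (MyoF 48 h; BT 72 h for soluble read-outs or 6 d for IgG). Biomarkers were read by ELISA, cytotoxicity by SRB, PBMC viability and proliferation by Alamar Blue. Each well value was divided by the mean of 8 DMSO control wells on the same plate and log10 transformed; duplicate blinded samples were tested at 4 concentrations.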

[2] = compound: Cc1ccc(S(=O)(=O)OCC(F)(F)C(F)(F)C(F)(F)C(F)(F)C(F)(F)C(F)F)cc1 [1H,1H,7H-Perfluoroheptyl 4-methylbenzenesulfonate]; conditions: in DMSO
Description: as §1

[3] = compound: FC(F)(F)C(F)(F)C(F)(F)C(F)(F)CCI [1H,1H,2H,2H-Perfluorohexyl iodide]; conditions: in DMSO
Description: as §1

[4] = compound: O=C(Cl)C(F)(F)C(F)(F)C(F)(F)C(=O)Cl [Hexafluoroglutaryl chloride]; conditions: in DMSO
Description: as §1

[5] = compound: O=S(=O)(OCC(F)(F)F)C(F)(F)C(F)(F)C(F)(F)C(F)(F)F [2,2,2-Trifluoroethyl perfluorobutanesulfonate]; conditions: in DMSO
Description: as §1

[6] = compound: OCC(F)(F)C(F)(F)C(F)(F)C(F)(F)C(F)(F)C(F)(F)C(F)(F)C(F)(F)C(F)(F)C(F)(F)C(F)(F)F [11:1 Fluorotelomer alcohol]; conditions: in DMSO
Description: as §1

[7] = compound: OCCCC(F)(F)C(F)(F)C(F)(F)C(F)(F)C(F)(F)C(F)(F)C(F)(F)C(F)(F)F [3-(Perfluorooctyl)propanol]; conditions: 6700 nM; in DMSO
Description: as §1

HDF3CGF:Collagen III
level (log10) ([1]; 6700 nM): -0.0545 ± 0.1 | level (log10) ([1]; 20000 nM): -0.075 ± 0.031 | level (log10) ([1]; 60000 nM): -0.034 ± 0.048 | level (log10) ([2]; 6700 nM): -0.0605 ± 0.03 | level (log10) ([2]; 20000 nM): -0.0435 ± 0.011 | level (log10) ([2]; 60000 nM): -0.048 ± 0.073 | level (log10) ([3]; 6700 nM): -0.0145 ± 0.021 | level (log10) ([3]; 20000 nM): -0.0185 ± 0.052 | level (log10) ([3]; 60000 nM): -0.035 ± 0.047 | level (log10) ([4]; 6700 nM): -0.027 ± 0.0028 | level (log10) ([4]; 20000 nM): -0.06 ± 0.031 | level (log10) ([4]; 60000 nM): -0.023 ± 0.028 | level (log10) ([5]; 6700 nM): -0.0265 ± 0.018 | level (log10) ([5]; 20000 nM): -0.0345 ± 0.033 | level (log10) ([5]; 60000 nM): -0.0995 ± 0.037 | level (log10) ([6]; 1100 nM): 0.2 ± 0.0021 | level (log10) ([6]; 3300 nM): 0.168 ± 0.057 | level (log10) ([6]; 10000 nM): 0.171 ± 0.0042 | level (log10) [7]: -0.12 ± 0.0092

MyoF:TIMP-1
level (log10) ([1]; 6700 nM): 0.017 ± 0.028 | level (log10) ([1]; 20000 nM): 0.0135 ± 0.025 | level (log10) ([1]; 60000 nM): 0.0075 ± 0.0064 | level (log10) ([2]; 6700 nM): -0.0255 ± 0.044 | level (log10) ([2]; 20000 nM): -0.0575 ± 0.069 | level (log10) ([2]; 60000 nM): -0.0375 ± 0.07 | level (log10) ([3]; 6700 nM): 0.019 ± 0.041 | level (log10) ([3]; 20000 nM): 0.024 ± 0.083 | level (log10) ([3]; 60000 nM): 0.021 ± 0.12 | level (log10) ([4]; 6700 nM): -0.04 ± 0.057 | level (log10) ([4]; 20000 nM): -0.024 ± 0.027 | level (log10) ([4]; 60000 nM): 0.0175 ± 0.04 | level (log10) ([5]; 6700 nM): -0.0305 ± 0.042 | level (log10) ([5]; 20000 nM): -0.0235 ± 0.011 | level (log10) ([5]; 60000 nM): -0.056 ± 0.0099 | level (log10) ([6]; 1100 nM): 0.0095 ± 0.05 | level (log10) ([6]; 3300 nM): 0.015 ± 0.048 | level (log10) ([6]; 10000 nM): 0.011 ± 0.02 | level (log10) [7]: -0.0115 ± 0.046

CASM3C:HLA-DR
level (log10) ([1]; 6700 nM): -0.0035 ± 0.0078 | level (log10) ([1]; 20000 nM): 0.0125 ± 0.0021 | level (log10) ([1]; 60000 nM): 0.0135 ± 0.015 | level (log10) ([2]; 6700 nM): -0.009 ± 0.0028 | level (log10) ([2]; 20000 nM): -0.021 ± 0.0014 | level (log10) ([2]; 60000 nM): -0.002 ± 0.0071 | level (log10) ([3]; 6700 nM): -0.012 ± 0.0085 | level (log10) ([3]; 20000 nM): -0.017 ± 0.02 | level (log10) ([3]; 60000 nM): 0.0265 ± 0.081 | level (log10) ([4]; 6700 nM): -0.0095 ± 0.0035 | level (log10) ([4]; 20000 nM): -0.0025 ± 0.033 | level (log10) ([4]; 60000 nM): 0.002 ± 0.0057 | level (log10) ([5]; 6700 nM): 0.0015 ± 0.0064 | level (log10) ([5]; 20000 nM): -0.0015 ± 0.0064 | level (log10) ([5]; 60000 nM): 0.0125 ± 0.005 | level (log10) ([6]; 1100 nM): 0.0075 ± 0.016 | level (log10) ([6]; 3300 nM): 0.0015 ± 0.00071 | level (log10) ([6]; 10000 nM): 0.0095 ± 0.0035 | level (log10) [7]: -0.0215 ± 0.005

lMphg:SRB
level (log10) ([1]; 6700 nM): -0.0075 ± 0.0092 | level (log10) ([1]; 20000 nM): -0.004 ± 0.0057 | level (log10) ([1]; 60000 nM): 0.0005 ± 0.021 | level (log10) ([2]; 6700 nM): 0.004 ± 0.013 | level (log10) ([2]; 20000 nM): -0.002 ± 0.0042 | level (log10) ([2]; 60000 nM): -0.0055 ± 0.00071 | level (log10) ([3]; 6700 nM): -0.008 ± 0.011 | level (log10) ([3]; 20000 nM): -0.003 ± 0.0028 | level (log10) ([3]; 60000 nM): 0 ± 0.021 | level (log10) ([4]; 6700 nM): 0.008 ± 0.0057 | level (log10) ([4]; 20000 nM): 0.012 | level (log10) ([4]; 60000 nM): 0.0075 ± 0.0092 | level (log10) ([5]; 6700 nM): -0.005 ± 0.0071 | level (log10) ([5]; 20000 nM): -0.012 ± 0.0085 | level (log10) ([5]; 60000 nM): -0.008 ± 0.018 | level (log10) ([6]; 1100 nM): 0.0045 ± 0.00071 | level (log10) ([6]; 3300 nM): 0.001 | level (log10) ([6]; 10000 nM): -0.0205 ± 0.005 | level (log10) [7]: 0.0045 ± 0.0078

3C:CCL2/MCP-1
level (log10) ([1]; 6700 nM): -0.0015 ± 0.0035 | level (log10) ([1]; 20000 nM): -0.009 ± 0.0071 | level (log10) ([1]; 60000 nM): 0.01 ± 0.027 | level (log10) ([2]; 6700 nM): -0.011 ± 0.0028 | level (log10) ([2]; 20000 nM): -0.0075 ± 0.0021 | level (log10) ([2]; 60000 nM): -0.0475 ± 0.011 | level (log10) ([3]; 6700 nM): 0.015 ± 0.0014 | level (log10) ([3]; 20000 nM): -0.0195 ± 0.0092 | level (log10) ([3]; 60000 nM): 0.0055 ± 0.026 | level (log10) ([4]; 6700 nM): 0.009 ± 0.0028 | level (log10) ([4]; 20000 nM): -0.0105 ± 0.035 | level (log10) ([4]; 60000 nM): 0.009 ± 0.065 | level (log10) ([5]; 6700 nM): 0.0095 ± 0.011 | level (log10) ([5]; 20000 nM): 0.004 ± 0.035 | level (log10) ([5]; 60000 nM): 0.023 ± 0.057 | level (log10) ([6]; 1100 nM): -0.0005 ± 0.0064 | level (log10) ([6]; 3300 nM): -0.007 ± 0.021 | level (log10) ([6]; 10000 nM): 0.003 ± 0.04 | level (log10) [7]: 0.003 ± 0.013

CASM3C:CXCL9/MIG
level (log10) ([1]; 6700 nM): -0.001 ± 0.011 | level (log10) ([1]; 20000 nM): 0.005 ± 0.0099 | level (log10) ([1]; 60000 nM): 0.0195 ± 0.0021 | level (log10) ([2]; 6700 nM): -0.0085 ± 0.011 | level (log10) ([2]; 20000 nM): -0.0195 ± 0.013 | level (log10) ([2]; 60000 nM): 0.0135 ± 0.0021 | level (log10) ([3]; 6700 nM): 0.016 ± 0.028 | level (log10) ([3]; 20000 nM): 0.022 ± 0.03 | level (log10) ([3]; 60000 nM): 0.0575 ± 0.09 | level (log10) ([4]; 6700 nM): 0.0055 ± 0.043 | level (log10) ([4]; 20000 nM): -0.002 ± 0.04 | level (log10) ([4]; 60000 nM): 0.0115 ± 0.1 | level (log10) ([5]; 6700 nM): -0.0035 ± 0.026 | level (log10) ([5]; 20000 nM): -0.014 ± 0.047 | level (log10) ([5]; 60000 nM): -0.072 ± 0.09 | level (log10) ([6]; 1100 nM): 0.0005 ± 0.0035 | level (log10) ([6]; 3300 nM): -0.002 ± 0.0028 | level (log10) ([6]; 10000 nM): 0.014 ± 0.021 | level (log10) [7]: -0.042 ± 0.0028

HDF3CGF:Collagen I
level (log10) ([1]; 6700 nM): -0.0145 ± 0.0021 | level (log10) ([1]; 20000 nM): -0.0495 ± 0.064 | level (log10) ([1]; 60000 nM): 0.016 ± 0.033 | level (log10) ([2]; 6700 nM): 0.025 ± 0.051 | level (log10) ([2]; 20000 nM): 0.0485 ± 0.066 | level (log10) ([2]; 60000 nM): 0.027 ± 0.052 | level (log10) ([3]; 6700 nM): 0.004 ± 0.047 | level (log10) ([3]; 20000 nM): -0.0205 ± 0.063 | level (log10) ([3]; 60000 nM): 0.015 ± 0.11 | level (log10) ([4]; 6700 nM): -0.025 ± 0.023 | level (log10) ([4]; 20000 nM): 0.002 | level (log10) ([4]; 60000 nM): 0.0065 ± 0.028 | level (log10) ([5]; 6700 nM): -0.0325 ± 0.016 | level (log10) ([5]; 20000 nM): -0.0635 ± 0.04 | level (log10) ([5]; 60000 nM): -0.047 ± 0.028 | level (log10) ([6]; 1100 nM): 0.438 ± 0.0099 | level (log10) ([6]; 3300 nM): 0.471 ± 0.03 | level (log10) ([6]; 10000 nM): 0.394 ± 0.062 | level (log10) [7]: 0.161 ± 0.077
